Measurements taken from patent US20250312469A1 (CANGET BIOTEKPHARMA, priority 2024, published 2025).
Read-outs that look alike come from different tables or passages of the source. Marks after values point to notes of the source that are not given here.

[1] = Female, 4.69→ 2 mg/kg/wk, Day 15
[2] = female rats, 4.69→2 mg/kg/wk, Day 15
[3] = female rats, Group 3, 3.75/2.5 mg/kg/wk oral, Day 15
[4] = female rats, Group 4, 4.69/2 mg/kg/wk oral, Day 15
[5] = male rats, 4.69→2 mg/kg/wk, Day 15, 2 animals
[6] = male rats, Group 2, 3 mg/kg/wk, Day 15
[7] = male rats, Group 2, 3 mg/kg/wk, Day 15, vs Group 1
[8] = male rats, Group 3, 3.75/2.5 mg/kg/wk oral, Day 15
[9] = male rats, Group 3, 3.75/2.5 mg/kg/wk, Day 15
[10] = male rats, Group 3, 3.75/2.5 mg/kg/wk, Day 15, vs Group 1
[11] = male rats, Group 4, 4.69/2 mg/kg/wk oral, Day 15, N 2, vs vehicle Group 1
[12] = male rats, Group 4, 4.69/2 mg/kg/wk, Day 15, vs Group 1

CCC1(O)C(=O)OCc2c1cc1n(c2=O)Cc2cc3cc4c(cc3nc2-1)OCO4 (centres unmarked) [FL118]
decrease of body weight, males, Day 14 (3 mg/kg/wk): 18.15% | decrease of body weight, males, Day 14 (3.75→2.5 mg/kg/wk): 17.41% | mortality (4.69 (day 1) and 2 mg/kg/wk (day 8)): two male mice died on day 6 and day 12 | decrease of body weight, males, Day 14 (4.69→2 mg/kg/wk): 47.53% | #LYMP, percent difference in mean values from concurrent controls [1]: −37.76% | WBC, percent difference in mean values from concurrent controls [1]: −33.69% | WBC, percent difference in mean values from concurrent controls (Male, 3 mg/kg/wk, Day 15): −16.11% | WBC, percent difference in mean values from concurrent controls (Male, 3.75→ 2.5 mg/kg/wk, Day 15): −11.98% | #LYMP, percent difference in mean values from concurrent controls (Male, 4.69→ 2 mg/kg/wk, Day 15): −57.17% | WBC, percent difference in mean values from concurrent controls (Male, 4.69→ 2 mg/kg/wk, Day 15): −52.17% | ALT, percent difference in mean values from concurrent controls [2]: 122% | sGLU, percent difference in mean values from concurrent controls [2]: −19.47% | #BASO, basophils, absolute, Mean [3]: 0.01 10^3/μL | #EOS, eosinophils, absolute, Mean [3]: 0.07 10^3/μL | #LYMP, lymphocytes, absolute, Mean [3]: 5.87 10^3/μL | #MONO, monocytes, absolute, Mean [3]: 0.17 10^3/μL | #NEUT, neutrophils, absolute, Mean [3]: 0.87 10^3/μL | % BASO, basophils, percent, Mean [3]: 0.2% | % EOS, eosinophils, percent, Mean [3]: 1.0% | % LYMP, lymphocytes, percent, Mean [3]: 83.5% | % MONO, monocytes, percent, Mean [3]: 2.4% | % NEUT, neutrophils, percent, Mean [3]: 12.1% | % RET, reticulocytes, percent, Mean [3]: 5.05% | ALB, albumin, Mean [3]: 37.5 g/L | ALP, alkaline phosphatase, Mean [3]: 83 U/L | ALT, alanine aminotransferase, Mean [3]: 33 U/L | AST, aspartate aminotransferase, Mean [3]: 89 U/L | BIL-T, total bilirubin, Mean [3]: 1.59 µmol/L | CK, creatine kinase, Mean [3]: 247 U/L | CRE, creatinine, Mean [3]: 24 µmol/L | Ca, calcium, Mean [3]: 2.42 mmol/L | GLB, globulin, Mean [3]: 23.0 g/L | HCT, hematocrit, Mean [3]: 19.8% | HGB, hemoglobin, Mean [3]: 13.2 g/dL | K, potassium, Mean [3]: 4.3 mmol/L | MCH, mean corpuscular hemoglobin, Mean [3]: 19.3 pg | MCHC, mean corpuscular hemoglobin concentration, Mean [3]: 33.3 g/dL | MCV, mean corpuscular volume, Mean [3]: 58.0 fL | MPV, mean platelet volume, Mean [3]: 6.8 fL | Na, sodium, Mean [3]: 142 mmol/L | P, inorganic phosphorus, Mean [3]: 2.20 mmol/L | PLT, platelet count, Mean [3]: 1295 10^3/μL | RBC, red blood cell, Mean [3]: 6.88 10^6/μL | RDW, RBC distribution width, Mean [3]: 12.9* % | TCHO, total cholesterol, Mean [3]: 1.70 mmol/L | TG, triglyceride, Mean [3]: 0.26 mmol/L | UREA, urea, Mean [3]: 6.29 mmol/L | WBC, white blood cell, Mean [3]: 7.03 10^3/μL | sGLU, glucose, Mean [3]: 9.43 mmol/L | #BASO, basophils, absolute, Mean [4]: 0.01 10^3/μL | #EOS, eosinophils, absolute, Mean [4]: 0.05 10^3/μL | #LYMP, lymphocytes, absolute, Mean [4]: 4.03 10^3/μL | #MONO, monocytes, absolute, Mean [4]: 0.13 10^3/μL | #NEUT, neutrophils, absolute, Mean [4]: 0.62 10^3/μL | % BASO, basophils, percent, Mean [4]: 0.1% | % EOS, eosinophils, percent, Mean [4]: 1.0% | % LYMP, lymphocytes, percent, Mean [4]: 82.7% | % MONO, monocytes, percent, Mean [4]: 2.9% | % NEUT, neutrophils, percent, Mean [4]: 12.7% | % RET, reticulocytes, percent, Mean [4]: 4.79% | ALB, albumin, Mean [4]: 36.6 g/L | ALP, alkaline phosphatase, Mean [4]: 88 U/L | ALT, alanine aminotransferase, Mean [4]: 75 U/L | AST, aspartate aminotransferase, Mean [4]: 222 U/L | BIL-T, total bilirubin, Mean [4]: 2.66 µmol/L | CK, creatine kinase, Mean [4]: 427 U/L | CRE, creatinine, Mean [4]: 24 µmol/L | Ca, calcium, Mean [4]: 2.37 mmol/L | GLB, globulin, Mean [4]: 22.0 g/L | HCT, hematocrit, Mean [4]: 40.0% | HGB, hemoglobin, Mean [4]: 13.6 g/dL | K, potassium, Mean [4]: 4.6 mmol/L | MCH, mean corpuscular hemoglobin, Mean [4]: 19.6 pg | MCHC, mean corpuscular hemoglobin concentration, Mean [4]: 33.8 g/dL | MCV, mean corpuscular volume, Mean [4]: 57.8 fL | MPV, mean platelet volume, Mean [4]: 6.7 fL | Na, sodium, Mean [4]: 142 mmol/L | P, inorganic phosphorus, Mean [4]: 1.92 mmol/L | PLT, platelet count, Mean [4]: 1278 10^3/μL | RBC, red blood cell, Mean [4]: 6.94 10^6/μL | RDW, RBC distribution width, Mean [4]: 13.7* % | TCHO, total cholesterol, Mean [4]: 1.37 mmol/L | TG, triglyceride, Mean [4]: 0.29 mmol/L | TP, total protein, Mean [4]: 58.5 g/L | UREA, urea, Mean [4]: 9.54 mmol/L | WBC, white blood cell, Mean [4]: 4.85 10^3/μL | sGLU, glucose, Mean [4]: 8.25 mmol/L | ALT, percent difference in mean values from concurrent controls (male rats, 3 mg/kg/wk, Day 15): 19% | ALT, percent difference in mean values from concurrent controls (male rats, 3.75→2.5 mg/kg/wk, Day 15): 34% | ALT, percent difference in mean values from concurrent controls [5]: 275% | sGLU, percent difference in mean values from concurrent controls [5]: −59.96% | #BASO Mean [6]: 0.02 10^3/μL | #EOS Mean [6]: 0.06 10^3/μL | #LYMP Mean [6]: 7.94 10^3/μL | #MONO Mean [6]: 0.21 10^3/μL | #NEUT Mean [6]: 0.72 10^3/μL | #RET Mean [6]: 337.2 10^9/L | % BASO Mean [6]: 0.2% | % EOS Mean [6]: 0.7% | % LYMP Mean [6]: 88.2% | % MONO Mean [6]: 2.5% | % NEUT Mean [6]: 7.9% | % RET Mean [6]: 4.68% | HCT Mean [6]: 42.1* % | MCH Mean [6]: 19.2 pg | MCHC Mean [6]: 32.8 g/dL | MCV Mean [6]: 58.3 fL | MPV Mean [6]: 6.6 fL | PLT Mean [6]: 1172 10^3/μL | RBC Mean [6]: 7.22 10^6/μL | RDW Mean [6]: 13.5** % | WBC Mean [6]: 9.01 10^3/μL | #BASO % Diff [7]: −25.00% | #EOS % Diff [7]: −43.40% | #LYMP % Diff [7]: −13.38% | #MONO % Diff [7]: −25.17% | #NEUT % Diff [7]: −34.07% | #RET % Diff [7]: 53.1% | % BASO % Diff [7]: −8.3% | % EOS % Diff [7]: −35.2% | % LYMP % Diff [7]: 3.7% | % MONO % Diff [7]: −6.6% | % NEUT % Diff [7]: −24.1% | % RET % Diff [7]: 62.09% | HCT % Diff [7]: −8.0% | HGB % Diff [7]: −8.9% | MCHC % Diff [7]: −0.8% | MCV % Diff [7]: −2.7% | MPV % Diff [7]: −2.7% | PLT % Diff [7]: 14% | RDW % Diff [7]: 15.7% | WBC % Diff [7]: −16.11% | ALB, albumin, Mean [8]: 34.1 g/L | ALP, alkaline phosphatase, Mean [8]: 113 U/L | ALT, alanine aminotransferase, Mean [8]: 47 U/L | AST, aspartate aminotransferase, Mean [8]: 104 U/L | BIL-T, total bilirubin, Mean [8]: 1.83 | CK, creatine kinase, Mean [8]: 296 U/L | CRE, creatinine, Mean [8]: 19 µmol/L | Ca, calcium, Mean [8]: 2.41 mmol/L | GLB, globulin, Mean [8]: 22.0 g/L | K, potassium, Mean [8]: 5.0 mmol/L | Na, sodium, Mean [8]: 143 mmol/L | P, inorganic phosphorus, Mean [8]: 2.38 mmol/L | TCHO, total cholesterol, Mean [8]: 1.73* mmol/L | TG, triglyceride, Mean [8]: 0.33 mmol/L | TP, total protein, Mean [8]: 56.1 g/L | UREA, urea, Mean [8]: 5.60 mmol/L | sGLU, glucose, Mean [8]: 10.18 mmol/L | #BASO Mean [9]: 0.02 10^3/μL | #EOS Mean [9]: 0.07 10^3/μL | #LYMP Mean [9]: 8.02 10^3/μL | #MONO Mean [9]: 0.23 10^3/μL | #NEUT Mean [9]: 1.04 10^3/μL | #RET Mean [9]: 342.9 10^9/L | % BASO Mean [9]: 0.2% | % EOS Mean [9]: 0.8% | % LYMP Mean [9]: 84.7% | % MONO Mean [9]: 2.4% | % NEUT Mean [9]: 11.2% | % RET Mean [9]: 4.74% | HCT Mean [9]: 42.3* % | HGB Mean [9]: 13.8** g/dL | MCH Mean [9]: 19.0 pg | MCHC Mean [9]: 32.6 g/dL | MCV Mean [9]: 58.2 fL | MPV Mean [9]: 6.5 fL | PLT Mean [9]: 1129 10^3/μL | RDW Mean [9]: 14.1*** % | WBC Mean [9]: 9.43 10^3/μL | #EOS % Diff [10]: −30.19% | #LYMP % Diff [10]: −12.51% | #MONO % Diff [10]: −18.88% | #NEUT % Diff [10]: −4.40% | #RET % Diff [10]: 55.7% | % EOS % Diff [10]: −22.2% | % LYMP % Diff [10]: −0.4% | % MONO % Diff [10]: −10.3% | % NEUT % Diff [10]: 7.9% | % RET % Diff [10]: 64.10% | HCT % Diff [10]: −7.5% | HGB % Diff [10]: −8.6% | MCHC % Diff [10]: −1.3% | MCV % Diff [10]: −2.9% | PLT % Diff [10]: 10% | RDW % Diff [10]: 20.5% | WBC % Diff [10]: −11.98% | ALB, albumin, % Diff [11]: −28.9% | ALP, alkaline phosphatase, % Diff [11]: −45% | ALT, alanine aminotransferase, % Diff [11]: 27.5% | AST, aspartate aminotransferase, % Diff [11]: 1.54% | BIL-T, total bilirubin, % Diff [11]: 187.51% | CK, creatine kinase, % Diff [11]: 13% | CRE, creatinine, % Diff [11]: −3% | Ca, calcium, % Diff [11]: −15.35% | Cl, chloride, % Diff [11]: −3% | K, potassium, % Diff [11]: 2.6% | Na, sodium, % Diff [11]: −1% | P, inorganic phosphorus, % Diff [11]: −13.59% | TCHO, total cholesterol, % Diff [11]: 9.81% | TG, triglyceride, % Diff [11]: 52.32% | TP, total protein, % Diff [11]: −33.1% | UREA, urea, % Diff [11]: 71.64% | sGLU, glucose, % Diff [11]: −50.96% | #BASO % Diff [12]: −58.33% | #EOS % Diff [12]: −95.28% | #LYMP % Diff [12]: −57.17% | #MONO % Diff [12]: −0.35% | #NEUT % Diff [12]: −19.87% | #RET % Diff [12]: −87.2% | % BASO % Diff [12]: −37.5% | % EOS % Diff [12]: −95.4% | % LYMP % Diff [12]: −11.9% | % MONO % Diff [12]: 76.5% | % NEUT % Diff [12]: 88.7% | % RET % Diff [12]: −87.53% | HCT % Diff [12]: 1.7% | HGB % Diff [12]: 7.1% | MCHC % Diff [12]: 5.4% | MCV % Diff [12]: −6.8% | MPV % Diff [12]: −5.3% | PLT % Diff [12]: −11% | RBC % Diff [12]: 8.98% | RDW % Diff [12]: 4.3% | WBC % Diff [12]: −52.17% | NOAEL, females (oral, once weekly): 3 mg/kg/wk | NOAEL, males (oral, once weekly): 2 mg/kg/wk
